Several values for one entry are separate records, joined by “and”; a condition that tells them apart may be missing. Equal values may be shown once. Entries after “also recorded” stand apart in the source; their conditions may differ.

The EC50 is the midpoint of the concentration-response curve. For orientation: Km means the concentration of substrate that gives half-maximal velocity. Broadly, the Vmax is the top rate of the reaction or transport when substrate is in excess.

Series [1] concerns HREC. The series can be described thus: cAMP content of intact HRECs. The following applies: for inhibition of NECA-induced increase in cAMP content in HRECs: NECA 10 μM. The class given is cell-based, human. The source says: The cAMP content of intact HRECs following treatment with adenosine receptor agonists and antagonists was next examined. […] The effect of selective A1 and A2A adenosine receptor antagonists on NECA-induced accumulation of cAMP was also examined.

Series [2] concerns HREC. Briefly: BrdU incorporation (DNA synthesis) in HRECs. The following applies: for attenuation of NECA-stimulated BrdU incorporation by HRECs: XAC 10 μM, CPX 20 nM, SCH58261 60 nM. The class given is cell-based, human. As for the experimental part:
(§1) The subtype of adenosine receptor (A2B) that mediates the proliferative effect of adenosine on HREC was determined by the following studies. […] In contrast, neither the A2A adenosine receptor agonist CGS21680 (2-p-(2-carboxyethyl) phenethylamino-5′-N-ethylcarboxamidoadenosine) at concentrations ranging from 10 nM to 10 μM, nor the A1 adenosine receptor agonist CPA (N^6-cyclopentyladenosine) at concentrations ranging from 10 nM to 10 μM increased BrdU incorporation by HRECs. […] In contrast, neither the selective A1 adenosine receptor antagonist CPX (8-cyclopentyl-1,3-dipropylxanthine) at 20 nM, nor the selective A2A adenosine receptor antagonist SCH58261 (5-amino-7-(2-phenylethyl)-2-(2-furyl)-pyrazolo(4,3-E)-1,2,4-trizolo(1,5-c) pyrimidine) at 60 nM attenuated the stimulatory effect of NECA on BrdU incorporation by HRECs. These findings indicate that the proliferative effects of NECA are mediated by the A2B adenosine receptor in HREC in culture (Table 3).

The subject of series [3] is HREC. Briefly: HREC proliferation, cell count. The format is cell-based, human. The settings on record: agonist alone, 48 hr. As for the experimental part:
as §1
The data for cell counts were consistent with those for BrdU incorporation. […] These compounds, like XAC, blocked the proliferative effects of NECA as measured by cell counts, supporting that the proliferative effects of NECA on HREC are mediated by the adenosine A2B receptor (Table 3).

For series [4], the system named is HREC. Briefly: ERK/MAPK activation in HREC, Western blot. The class given is cell-based, human. The following applies: for effect on NECA-stimulated ERK activation: HREC pretreated with antagonist or inhibitor, then NECA. The method, then:
HREC were serum-starved for 24 hr and pre-treated for 20 min with 1 U/mL adenosine deaminase prior to adding NECA. Activated ERK/MAPK was visualized on Western blots by enhanced chemiluminescence using EC10 monoclonal antibody;
HRECs were serum-starved for 24 hr and pre-treated with adenosine deaminase (ADA, 1 U/mL) for 20 min, incubated with the antagonists in the presence of ADA for 10 min. NECA (1 nM-10 μM, 10 min) was used to activate ERK.
In order to determine the intracellular signaling pathways activated by NECA that regulate ERK activity, we pretreated cells for 30 min with the ERK/MPAK kinase (MEK) inhibitor PD98059 or the PKA inhibitor H-89 and stimulated with NECA for 5 min.
Cells were pre-treated with both antagonists for 10 min and stimulated with increasing concentrations of NECA.
For orientation: A western blot detects proteins with antibodies after separation by electrophoresis.

The test system of series [5] is HREC. The series can be described thus: HREC chemotaxis. The format is cell-based, human. The source says: The role of the A2B receptor was further characterized by examining the effects of the A2B antagonists JW V108 and Enprofylline on HREC chemotaxis, capillary tube formation and signal transduction pathways following stimulation with the adenosine analogue NECA.

Series [6] concerns HREC. The series can be described thus: CREB phosphorylation at Ser133 in HREC, western blot. The format is cell-based, human. The settings on record: HREC pretreated. An excerpt:
Phosphorylation of cAMP response element binding protein (CREB) at Ser^133 was examined following NECA stimulation in order to determine whether activation of cAMP pathways by NECA occurred independently of ERK activation. Cells were pretreated with PD98059 or H-89 and assayed for active CREB by western blot.

In series [7] the test system is adenosine A2b receptor mRNA. The series can be described thus: Ribozyme kinetic analysis, A2B. The class given is biochemical. An excerpt: (§2) The chief characteristic of diabetic retinopathy is retinal neovascularization-the pathologic spread of blood vessels in the eye. Unique ribozymes have been developed which target the mRNAs that encode various proteins involved in this process. These include ribozymes directed at the wild-type mRNA for the adenosine A2b receptor, for IGF-I (insulin-like growth factor-1) receptor, for inducible nitric oxide synthase (iNOS), and for several integrins implicated in retinal neovascularization (e.g., alpha1, alpha3, alphaV). Also shown in Table 7 are the analyses of P347S ribozymes, that are specific for another mutant form of the rod opsin polypeptide.

In series [8] the test system is IGF-I (insulin-like growth factor-1) receptor mRNA. The series can be described thus: Ribozyme kinetic analysis, IGF1. The format is biochemical. The settings on record: target GUACGUCUUCCAU
Source text: as §2

Series [9] deals with P347S rod opsin mRNA target UGGCCUCGGCCUA
The series can be described thus: Ribozyme kinetic analysis, P347S human. The class given is biochemical. The following applies: mean.
Source text: as §2

Series [10] concerns P347S rod opsin mRNA target AGGCGUCAGCCUA
Briefly: Ribozyme kinetic analysis, P347S pig. The format is biochemical.
Source text: as §2

Another series concerns alpha1 integrin mRNA. The series can be described thus: Ribozyme kinetic analysis, alpha 1 integrin. The class given is biochemical.
Source text: as §2

In another series the test system is alpha3 integrin mRNA. The series can be described thus: Ribozyme kinetic analysis, alpha 3 integrin. The class given is biochemical.
Source text: as §2

Another series deals with alphaV integrin mRNA. The series can be described thus: Ribozyme kinetic analysis, alpha V integrin. The class given is biochemical.
Source text: as §2

[11] abbreviates: per experiment, target CAUGUCUCUUUG
Setting [12] is: per experiment, Rz 1 target AGAUGUCUAUAAG, Rz 2 target GAGAGUCUCAUGA
Where [13] appears, read: per experiment, Rz 1 target CUAUGCCUUCAUG, Rz 2 target CGCUGUCUUCCAC
Setting [14] is: per experiment, Rz 1 target GCGCGUCUUCCCG, Rz 2 target ACUGGUCUUCUAC

Regarding `CCCn1c(=O)c2[nH]c(C3CCCC3)nc2n(CCC)c1=O` [CPX, 8-cyclopentyl-1,3-dipropylxanthine], the “inhibition of NECA-induced increase in cAMP content in HRECs” value in the series on HREC [1] is “not signficantly inhibited”. In the series with HREC [2], the “attenuation of NECA-stimulated BrdU incorporation by HRECs” value is given as “neither”.
With `CCNC(=O)[C@H]1O[C@@H](n2cnc3c(N)ncnc32)[C@H](O)[C@@H]1O` [NECA], the “increase in HREC number” value in the series on HREC [3] is “concentration-dependent increase in HREC number”. For the same molecule, the “ERK activation by agonist” value with HREC [4] (HREC, agonist alone) is given as “dose-dependent increase in ERK activation; also recorded: transient activation of ERK”. Also, the concentration for a half-maximal effect (EC50) with HREC [1] (intact HRECs, read-out: EC50 for increase of cAMP content of HRECs) worked out at 24 µM. Also, the “increase of BrdU incorporation (DNA synthesis) by HRECs” value in the series with HREC [2] (agonist alone, 48 hr, CGS21680 and CPA 10 nM to 10 μM) is reported as “concentration-dependent increase of DNA synthesis”. In the series with HREC [5], the “HREC chemotaxis induced by agonist” value is reported as “induced HREC chemotaxis in a concentration-dependent manner”.
As to `COc1cccc(-c2cc(=O)c3ccccc3o2)c1N` [PD98059], the “CREB activation (phosphorylation) following NECA stimulation” value in the series on HREC [6] is on record as “did not alter CREB activation”. Further, in the series with HREC [4], the “effect on NECA-stimulated ERK activation” value is recorded as “abolished ERK activation”.
With `O=S(=O)(NCCNC/C=C/c1ccc(Br)cc1)c1cccc2cnccc12` [Ribozyme H-89], the “CREB activation (phosphorylation) following NECA stimulation” value in the series on HREC [6] was “blocked CREB phosphorylation”. Besides, the “effect on NECA-stimulated ERK activation” value in the series with HREC [4] was “did not block”. Also, the “basal ERK activation” value in the series with HREC [4] (HREC, CGS 1-10 μM, H-89 30 min pretreatment) was “increased basal ERK activation”.
Regarding `Nc1nc2c(cnn2CCc2ccccc2)c2nc(-c3ccco3)nn12` [SCH58261, 5-amino-7-(2-phenylethyl)-2-(2-furyl)-pyrazolo(4,3-E)-1,2,4-trizolo(1,5-c) pyrimidine], in the series with HREC [1], the “inhibition of NECA-induced increase in cAMP content in HRECs” value was “not signficantly inhibited”. Also, the “attenuation of NECA-stimulated BrdU incorporation by HRECs” value in the series with HREC [2] is “neither”.
Consider “A2B Rz 1: hammerhead ribozyme CAAAGACUGAUGAGCCGUUCGCGGCGAAACAUGU (SEQ ID NO:90), adenosine A2b receptor mRNA (RNA, backbone not given here)”, for which, in [7] (mean), the Km was found to be 4.35 µM, the Vmax came out at 541.7 nM/min and the kcat is recorded as 36.1 min − 1. In [7] (setting [11]), the Michaelis constant (Km) was 5.07 µM and 3.63 µM; the maximum rate (Vmax) was 666.7 nM/min and 416.7 nM/min; the kcat was 44.4 min − 1 and 27.8 min − 1.
Take “IGF1 Rz 2: ribozyme GGAACUGAUGAGCCGUUCGCGGCGAAACGUAC (SEQ ID NO:101), IGF-I receptor mRNA (RNA, backbone not given here)”: in series [8], the Michaelis constant (Km) stood at 9.76 µM, the Vmax was determined as 27.6 nM/min and the kcat is recorded as 18.4 min − 1.
As for “P347S human: ribozyme UAGGCCCUGAUGAGCCGCUUCGGCGGCAAAGGCCA (SEQ ID NO:103), P347S mutant rod opsin mRNA (listed as RNA, chemistry not given here)”, in series [9], the Km came to 41.9 µM, the maximal velocity (Vmax) is 0.00135 nM/min and the kcat came to 1.10E−04 min − 1.
“P347S pig: ribozyme UAGGCUCUGAUGAGCCGCUUCGGCGGCAAACGCCU (SEQ ID NO:102), P347S mutant rod opsin mRNA (listed as RNA, chemistry not given here)”: in series [10] (mean), the Km stood at 2.05 µM, the maximum rate (Vmax) is reported as 7.3 nM/min and the kcat worked out at 1.5 min − 1. In [10] (per experiment), the Michaelis-Menten constant (Km) was 1.65 µM and 1.68 µM and 2.84 µM; the kcat is 1.8 min − 1 and 2.2 min − 1 and 1.3 min − 1 and 1.1 min − 1 and 1.2 min − 1.
Regarding “alpha 1 Rz 1: ribozyme CUUAUACUGAUGAGCCGUUCGCGGCGAAACAUCU (SEQ ID NO:96), alpha1 integrin mRNA (RNA, backbone not given here)”, in the series on alpha1 integrin mRNA (mean), the Michaelis-Menten constant (Km) is 25.6 µM, the Vmax is on record as 57.0 nM/min and the kcat was 3.8 min − 1. In the series on alpha1 integrin mRNA (setting [12]), the maximal velocity (Vmax) was 61.7 nM/min and 52.4 nM/min; the kcat is 4.1 min − 1 and 3.5 min − 1.
As to “alpha 1 Rz 2: ribozyme UCAUGACUGAUGAGCCGUUCGCGGCGAAACUCUC (SEQ ID NO:97), alpha1 integrin mRNA (RNA, backbone not given here)”, in the series on alpha1 integrin mRNA (mean), the Km worked out at 42.2 µM, the Vmax amounted to 42.2 nM/min and the kcat turned out to be 2.9 min − 1. In the series on alpha1 integrin mRNA (setting [12]), the Michaelis-Menten constant (Km) was 30.6 µM and 53.8 µM; the Vmax was 31.0 nM/min and 53.5 nM/min; the kcat is 2.1 min − 1 and 3.6 min − 1.
In the case of “alpha 3 Rz 1: ribozyme CAUGAACUGAUGAGCCGUUCGCGGCGAAACAUAG (SEQ ID NO:92), alpha3 integrin mRNA (RNA, backbone not given here)”, in the series with alpha3 integrin mRNA (mean), the Km turned out to be 4.16 µM, the Vmax is 6.2 nM/min and the kcat is recorded as 0.4 min − 1. In addition, in the series on alpha3 integrin mRNA (setting [13]), the Michaelis-Menten constant (Km) is 3.62 µM and 4.69 µM; the Vmax is 5.4 nM/min and 6.9 nM/min; the kcat was 0.4 min − 1 and 0.5 min − 1.
Regarding “alpha 3 Rz 2: ribozyme GUGGAACUGAUGAGCCGUUCGCGGCGAAACAGCG (SEQ ID NO:93), alpha3 integrin mRNA (RNA, backbone not given here)”, in the series with alpha3 integrin mRNA (mean), the Michaelis-Menten constant (Km) was 1.45 µM, the maximal velocity (Vmax) came out at 2.5 nM/min and the kcat amounted to 0.2 min − 1. Further, in the series with alpha3 integrin mRNA (setting [13]), the Km is 1.66 µM and 1.24 µM; the Vmax is 2.8 nM/min and 2.2 nM/min; the kcat is reported as 0.2 min − 1.
In the case of “alpha V Rz 1: ribozyme CGGGAACUGAUGAGCCGUUCGCGGCGAAACGCGC (SEQ ID NO:98), alphaV integrin mRNA (RNA, backbone not given here)”, in the series with alphaV integrin mRNA (mean), the Km was found to be 5.2 µM, the Vmax was 33.4 nM/min and the kcat is 2.2 min − 1. For the same molecule, in the series with alphaV integrin mRNA (setting [14]), the Km was 4.98 µM and 5.41 µM; the Vmax is 30.5 nM/min and 36.2 nM/min; the kcat is 2.0 min − 1 and 2.4 min − 1.
As for “alpha V Rz 2: ribozyme GUAGAACUGAUGAGCCGUUCGCGGCGAAACCAGU (SEQ ID NO:99), alphaV integrin mRNA (RNA, backbone not given here)”, in the series with alphaV integrin mRNA (mean), the Michaelis-Menten constant (Km) worked out at 11.3 µM, the maximal velocity (Vmax) is 285.7 nM/min and the kcat came out at 19.1 min − 1. Moreover, in the series with alphaV integrin mRNA (setting [14]), the Km was 8.54 µM and 14 µM; the maximal velocity (Vmax) was 238.1 nM/min and 333.3 nM/min; the kcat is 15.9 min − 1 and 22.2 min − 1.

(Values after patent publication US20050096282A1, “Adeno-associated virus-delivered ribozyme compositions and methods for the treatment of retinal diseases” (priority 1997, published 2005).)
